Values quoted from earlier work in US20150258085A1, “Treating Tumors of the Central Nervous System” (THE REGENTS OF THE UNIVERSITY OF CALIFORNIA, priority 2012, published 2015).

Test system: newly diagnosed glioblastoma
Conditions: systemic irinotecan plus TMZ versus TMZ alone

SMILES: CCc1c2c(nc3ccc(OC(=O)N4CCC(N5CCCCC5)CC4)cc13)-c1cc3c(c(=O)n1C2)COC(=O)[C@]3(O)CC [irinotecan]
- clinical outcome: comparable to TMZ alone
- toxicity / tolerability: more toxic and poorly tolerated
